Where “and” joins values, the source holds several entries; their conditions need not be identical. Equal values may be shown once. Toxic doses and inconclusive results are not listed. Rule as the data show it: active = T/C of 150% or more; inactive = T/C below 125%.
Test system: L1210 leukemia ip in BDF1 mice, survival T/C
Test: NCI In Vivo Anticancer Drug Screen. Data for tumor model L1210 Leukemia (intraperitoneal) in B6D2F1 (BDF1) mice
Conditions: endpoint: mean survival time, higher = longer survival
Outline: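 Transplantable tumor model; survival measured in treated vs vehicle control mice. Value = treated/control.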

[1] = dose: 100.0 mg/kg/injection, schedule: Q01DX001 (ip), vehicle: Klucel (hydroxypropylcellulose) (HPC)
[2] = dose: 200.0 mg/kg/injection, schedule: Q01DX001 (ip), vehicle: Klucel (hydroxypropylcellulose) (HPC)
[3] = dose: 400.0 mg/kg/injection, schedule: Q01DX001 (ip), vehicle: Klucel (hydroxypropylcellulose) (HPC)
[4] = dose: 25.0 mg/kg/injection, schedule: Q01DX009 (ip), vehicle: Klucel (hydroxypropylcellulose) (HPC)
[5] = dose: 50.0 mg/kg/injection, schedule: Q01DX009 (ip), vehicle: Klucel (hydroxypropylcellulose) (HPC)
[6] = dose: 100.0 mg/kg/injection, schedule: Q04DX003 (ip), vehicle: Klucel (hydroxypropylcellulose) (HPC)
[7] = dose: 12.5 mg/kg/injection, schedule: Q01DX009 (ip), vehicle: Klucel (hydroxypropylcellulose) (HPC)
[8] = dose: 50.0 mg/kg/injection, schedule: Q01DX001 (ip), vehicle: saline
[9] = dose: 100.0 mg/kg/injection, schedule: Q01DX001 (ip), vehicle: saline
[10] = dose: 200.0 mg/kg/injection, schedule: Q01DX001 (ip), vehicle: saline
[11] = dose: 300.0 mg/kg/injection, schedule: Q04DX003 (ip), vehicle: Klucel (hydroxypropylcellulose) (HPC)
[12] = dose: 100.0 mg/kg/injection, schedule: Q01DX009 (ip), vehicle: Klucel (hydroxypropylcellulose) (HPC)
[13] = dose: 200.0 mg/kg/injection, schedule: Q01DX009 (ip), vehicle: Klucel (hydroxypropylcellulose) (HPC)

Measured: T/C

NC(=O)OCc1c(O)c2c(c(O)c1COC(N)=O)C(=O)C=CC2=O
inactive: dose: 6.25 mg/kg/injection, schedule: Q01DX009 (ip), vehicle: water 94 % of control | dose: 12.5 mg/kg/injection, schedule: Q01DX009 (ip), vehicle: water 92 % of control | dose: 25.0 mg/kg/injection, schedule: Q01DX009 (ip), vehicle: water 99 % of control | dose: 50.0 mg/kg/injection, schedule: Q01DX009 (ip), vehicle: water 90 % of control | dose: 100.0 mg/kg/injection, schedule: Q01DX009 (ip), vehicle: water 95 % of control

CCCCN(C(=O)C(F)(F)F)C(C)(C)C(SSSC(c1cccs1)C(C)(C)N(CCCC)C(=O)C(F)(F)F)c1cccs1 (stereo not given)
inactive: dose: 100.0 mg/kg/injection, schedule: Q01DX009 (ip), vehicle: saline sonified 94 % of control | dose: 100.0 mg/kg/injection, schedule: Q04DX003 (ip), vehicle: saline sonified 90 % of control | dose: 200.0 mg/kg/injection, schedule: Q01DX009 (ip), vehicle: saline sonified 96 % of control | dose: 200.0 mg/kg/injection, schedule: Q04DX003 (ip), vehicle: saline sonified 93 % of control | dose: 400.0 mg/kg/injection, schedule: Q04DX003 (ip), vehicle: saline sonified 90 % of control

CC1(C)N=C(N)N=C(N)N1c1ccc(OCCCc2ccccc2)c(N)c1
inactive: dose: 25.0 mg/kg/injection, schedule: Q04DX003 (ip), vehicle: saline with Tween-80 100 % of control | dose: 50.0 mg/kg/injection, schedule: Q04DX003 (ip), vehicle: saline with Tween-80 96 % of control

O=C(O)CCc1ccc(-c2ccccc2)[nH]1
inactive: [1] 106 % of control | [2] 104 % of control | [3] 106 % of control

S=c1nc[nH]c2c1ncn2C1CCCCC1
inactive: dose: 47.0 mg/kg/injection, schedule: Q01DX Z (ip), vehicle: carboxymethylcellulose (CMC) 98 % of control | dose: 94.0 mg/kg/injection, schedule: Q01DX Z (ip), vehicle: carboxymethylcellulose (CMC) 98 % of control | dose: 94.0 mg/kg/injection, schedule: Q01DX Z (oral), vehicle: carboxymethylcellulose (CMC) 108 % of control | dose: 188.0 mg/kg/injection, schedule: Q01DX Z (ip), vehicle: carboxymethylcellulose (CMC) 106 % of control | dose: 188.0 mg/kg/injection, schedule: Q01DX Z (oral), vehicle: carboxymethylcellulose (CMC) 98 % of control | dose: 376.0 mg/kg/injection, schedule: Q01DX Z (ip), vehicle: carboxymethylcellulose (CMC) 102 % of control | dose: 376.0 mg/kg/injection, schedule: Q01DX Z (oral), vehicle: carboxymethylcellulose (CMC) 110 % of control | dose: 752.0 mg/kg/injection, schedule: Q01DX Z (oral), vehicle: carboxymethylcellulose (CMC) 106 % of control

Oc1ccc(O)c2[nH]c(-c3ccccc3)cc12
inactive: dose: 6.25 mg/kg/injection, schedule: Q04DX002 (ip), vehicle: saline with Tween-80 97 % of control | dose: 12.5 mg/kg/injection, schedule: Q04DX002 (ip), vehicle: saline with Tween-80 97 % of control

COc1ccc(-n2c(=O)c(N=Nc3ccccc3)c(O)n(-c3ccccc3OC)c2=S)cc1
inactive: dose: 12.5 mg/kg/injection, schedule: Q01DX001 (ip), vehicle: saline with Tween-80 101 % of control | dose: 25.0 mg/kg/injection, schedule: Q01DX001 (ip), vehicle: saline with Tween-80 90 % of control | dose: 50.0 mg/kg/injection, schedule: Q01DX001 (ip), vehicle: saline with Tween-80 94 % of control

CCOC(=O)c1cnc(OCC)nc1Nc1ccccc1Br
inactive: [1] 100 % of control | [2] 95 % of control | [3] 97 % of control

CCOC(=O)NCC(CCN(C)C)(c1cccc2ccccc12)C(C)CC (stereo not given)
inactive: [4] 94 % of control | [5] 94 % of control | dose: 50.0 mg/kg/injection, schedule: Q04DX003 (ip), vehicle: Klucel (hydroxypropylcellulose) (HPC) 105 % of control | [6] 103 % of control

C/C(=N/NC(=O)C1CCCO1)c1ccc(C)cc1 (stereo not given)
inactive: [7] 104 % of control | [4] 102 % of control

CC(C)(O)C1(O)CCCC1
inactive: [8] 95 % of control | [9] 93 % of control | [10] 101 % of control | dose: 400.0 mg/kg/injection, schedule: Q01DX001 (ip), vehicle: saline 93 % of control

Cn1cccc1/C=C/[N+](=O)[O-]
inactive: [8] 104 % of control | [9] 91 % of control

O=C(c1ccc(Cl)cc1)C(C(c1ccc([N+](=O)[O-])cc1)N1CCCCC1)N1CCCCC1 (stereo not given)
inactive: dose: 12.5 mg/kg/injection, schedule: Q01DX001 (ip), vehicle: Klucel (hydroxypropylcellulose) (HPC) 98 % of control | [7] 102 % of control | dose: 25.0 mg/kg/injection, schedule: Q01DX001 (ip), vehicle: Klucel (hydroxypropylcellulose) (HPC) 104 % of control | [4] 98 % of control | dose: 50.0 mg/kg/injection, schedule: Q01DX001 (ip), vehicle: Klucel (hydroxypropylcellulose) (HPC) 102 % of control | [5] 101 % of control | [3] 92 % of control

COC(=O)c1c(C(=O)O)coc1C(=O)N1CCCC1
inactive: dose: 75.0 mg/kg/injection, schedule: Q04DX003 (ip), vehicle: Klucel (hydroxypropylcellulose) (HPC) 105 % of control | [1] 100 % of control | dose: 150.0 mg/kg/injection, schedule: Q04DX003 (ip), vehicle: Klucel (hydroxypropylcellulose) (HPC) 89 % of control | [2] 97 % of control | [11] 91 % of control | [3] 105 % of control

CC(=O)COc1ccc(C(=O)Cl)cc1
inactive: [6] 95 % of control | dose: 200.0 mg/kg/injection, schedule: Q04DX003 (ip), vehicle: Klucel (hydroxypropylcellulose) (HPC) 102 % of control | [11] 106 % of control

O=C(Nc1ccc(N=Nc2ccccc2)cc1)C1CC1
inactive: [12] 101 % of control | [13] 100 % of control | dose: 400.0 mg/kg/injection, schedule: Q01DX009 (ip), vehicle: Klucel (hydroxypropylcellulose) (HPC) 94 % of control

CC1CCCC[N-]1.CC1CCCC[N-]1.CC1CCCC[N-]1.CC1CCCC[N-]1.N#CS.[Zn+2] (stereo not given)
inactive: [9] 93 % of control | [10] 103 % of control

O=C(O)C1C2CCCCCCC21 (stereo not given)
inactive: [5] 108 % of control | dose: 100.0 mg/kg/injection, schedule: Q01DX005 (ip), vehicle: Klucel (hydroxypropylcellulose) (HPC) 95 % of control | [12] 108 % of control | dose: 200.0 mg/kg/injection, schedule: Q01DX005 (ip), vehicle: Klucel (hydroxypropylcellulose) (HPC) 103 % of control | [13] 97 % of control

COc1ccc2c(c1OC)C1(CCN(C)C)CC(O)CCC1C=C2 (stereo not given)
inactive: dose: 100.0 mg/kg/injection, schedule: Q04DX003 (ip), vehicle: saline 102 % of control | dose: 200.0 mg/kg/injection, schedule: Q04DX003 (ip), vehicle: saline 102 % of control

CC1=NN(c2ccc(S(=O)(=O)O)cc2)/C(=N/N=C(N)N)C1
inactive: dose: 15.0 mg/kg/injection, schedule: Q01DX Z (ip), vehicle: carboxymethylcellulose (CMC) 96 % of control | dose: 30.0 mg/kg/injection, schedule: Q01DX Z (ip), vehicle: carboxymethylcellulose (CMC) 96 % of control | dose: 60.0 mg/kg/injection, schedule: Q01DX Z (ip), vehicle: carboxymethylcellulose (CMC) 97 % of control and 100 % of control | dose: 120.0 mg/kg/injection, schedule: Q01DX Z (ip), vehicle: carboxymethylcellulose (CMC) 100 % of control and 102 % of control | dose: 240.0 mg/kg/injection, schedule: Q01DX Z (ip), vehicle: carboxymethylcellulose (CMC) 101 % of control | dose: 480.0 mg/kg/injection, schedule: Q01DX Z (ip), vehicle: carboxymethylcellulose (CMC) 97 % of control

CC1(C)C2CC3C(=CCC4C(=O)C5CC=C6C(CC7CC6C7(C)C)C5C(=O)C43)C1C2 (stereo not given)
inactive: [1] 103 % of control | [2] 93 % of control | [3] 93 % of control
